Experimental data as given in PubChem BioAssay AID2060599 (Molecular Pharmacology Branch, DTP, NCI, 2025).
“And” between values parts separate entries of the source, which are not always exact repeats. Equal values may be shown once.

System: 817829-284-R-J1-PDC complex spheroids, viability
Test: Anticancer human tumor 817829-284-R-J1-PDC patient-derived colon adenocarcinoma cell line growth inhibition [CLK]
Details: for viability, T/C: stronger effect = lower value
How it was run: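 Patient-derived tumor cells grown as complex spheroids with HUVEC endothelial cells and mesenchymal stem cells, treated with drug combinations. Concentrations descend in half-log steps from near clinical Cmax, or from 10 microM if Cmax unknown.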
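Also: spheroids exposed to the agents for seven days before readout.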

SMILES: Cn1ncnc1[C@H]1c2n[nH]c(=O)c3cc(F)cc(c23)N[C@@H]1c1ccc(F)cc1
- viability, T/C (compound 0.000316 µM): 65.2% and 92.2%
- viability, T/C (compound 0.001 µM): 93.3% and 76.2%
- viability, T/C (compound 0.00316 µM): 50.8% and 73.8%
- viability, T/C (compound 0.01 µM): 48.2% and 62.2%
- viability, T/C (compound 0.0316 µM): 34.8% and 42%
- viability, T/C (compound 0.1 µM): 33.3% and 35.4%
- IC50 (curve of compound): 0.0034 µM and 0.0226 µM

SMILES: COC1C=CCC(C)C(C)S(=O)(=O)NC(=O)c2ccc3c(c2)N(CC2CCC21)CC1(CCCc2cc(Cl)ccc21)CO3 (centres undefined)
- viability, T/C (compound 0.0316 µM): 125% and 85.6%
- viability, T/C (compound 0.1 µM): 98.4% and 97.6%
- viability, T/C (compound 0.316 µM): 90.7% and 66.9%
- viability, T/C (compound 1 µM): 91.7% and 93.4%
- viability, T/C (compound 3.16 µM): 65.8% and 79%
- viability, T/C (compound 10 µM): 8.51% and 6.66%
- IC50 (curve of compound): 4.09 µM and 5.03 µM

SMILES: CCN1CCN(Cc2ccc(Nc3ncc(F)c(-c4cc(F)c5nc(C)n(C(C)C)c5c4)n3)nc2)CC1
- viability, T/C (compound 0.00316 µM): 79.4%
- viability, T/C (compound 0.01 µM): 55.3%
- viability, T/C (compound 0.0316 µM): 57.5%
- viability, T/C (compound 0.1 µM): 50.8%
- viability, T/C (compound 0.316 µM): 85.4%
- viability, T/C (compound 1 µM): 39.3%
- IC50 (curve of compound): > 1 µM

SMILES: NC(=O)C(=Cn1cnc(-c2cc(C(F)(F)F)cc(C(F)(F)F)c2)n1)c1cncnc1
- viability, T/C (compound 0.00949 µM): 69%
- viability, T/C (compound 0.03 µM): 23.2%
- viability, T/C (compound 0.0949 µM): 17.2%
- viability, T/C (compound 0.3 µM): 8.78%
- viability, T/C (compound 0.949 µM): 3.63%
- viability, T/C (compound 3 µM): 2.66%
- IC50 (curve of compound): 0.0157 µM

SMILES: CC1(C)CCC(CN2CCN(c3ccc(C(=O)NS(=O)(=O)c4ccc(NCC5CCOCC5)c([N+](=O)[O-])c4)c(Oc4cnc5[nH]ccc5c4)c3)CC2)=C(c2ccc(Cl)cc2)C1
- viability, T/C (compound 0.0316 µM): 103%
- viability, T/C (compound 0.1 µM): 85.1%
- viability, T/C (compound 0.316 µM): 98.6%
- viability, T/C (compound 1 µM): 63.7%
- viability, T/C (compound 3.16 µM): 77.5%
- viability, T/C (compound 10 µM): 2.29%
- IC50 (curve of compound): 4.31 µM

SMILES: CC(C)CC(NC(=O)C(Cc1ccccc1)NC(=O)c1cnccn1)B(O)O (centres undefined)
- viability, T/C (compound 0.000949 µM): 80.8% and 93.1%
- viability, T/C (compound 0.003 µM): 4.56% and 1.33%
- viability, T/C (compound 0.00949 µM): 0.1% and 0.36%
- viability, T/C (compound 0.03 µM): 0.16% and 0.15%
- viability, T/C (compound 0.0949 µM): 0.05% and 0.24%
- viability, T/C (compound 0.3 µM): 0.08% and 0.2%
- IC50 (curve of compound): 0.00151 µM and 0.00163 µM

SMILES: COc1cccc2c1C(=O)c1c(O)c3c(c(O)c1C2=O)CC(O)(C(=O)CO)CC3OC1CC(N)C(O)C(C)O1 (centres undefined) + CN1CCN(c2cc(C(=O)Nc3cc4cc(-c5cnn(C)c5)ccc4cn3)ccn2)CC1
- IC50 (curve of first compound, second compound 0.0316 µM): < 0.0316 µM
- IC50 (curve of first compound, second compound 0.1 µM): < 0.0316 µM
- IC50 (curve of first compound, second compound 0.316 µM): < 0.0316 µM
- IC50 (curve of first compound, second compound 1 µM): < 0.0316 µM
- IC50 (curve of first compound, second compound 3.16 µM): < 0.0316 µM
- IC50 (curve of first compound, second compound 10 µM): < 0.0316 µM
- viability, T/C (second compound 0.0316 µM, first compound 0.0316 µM): 19.4%
- viability, T/C (second compound 0.0316 µM, first compound 0.1 µM): 15.6%
- viability, T/C (second compound 0.0316 µM, first compound 0.316 µM): 3.99%
- viability, T/C (second compound 0.0316 µM, first compound 1 µM): 0.16%
- viability, T/C (second compound 0.0316 µM, first compound 3.16 µM): 0.37%
- viability, T/C (second compound 0.0316 µM, first compound 10 µM): 1.02%
- viability, T/C (second compound 0.1 µM, first compound 0.0316 µM): 18.2%
- viability, T/C (second compound 0.1 µM, first compound 0.1 µM): 13.4%
- viability, T/C (second compound 0.1 µM, first compound 0.316 µM): 2.32%
- viability, T/C (second compound 0.1 µM, first compound 1 µM): 0.22%
- viability, T/C (second compound 0.1 µM, first compound 3.16 µM): 0.51%
- viability, T/C (second compound 0.1 µM, first compound 10 µM): 0.96%
- viability, T/C (second compound 0.316 µM, first compound 0.0316 µM): 1.68%
- viability, T/C (second compound 0.316 µM, first compound 0.1 µM): 0.69%
- viability, T/C (second compound 0.316 µM, first compound 0.316 µM): 0.24%
- viability, T/C (second compound 0.316 µM, first compound 1 µM): 0.33%
- viability, T/C (second compound 0.316 µM, first compound 3.16 µM): 0.63%
- viability, T/C (second compound 0.316 µM, first compound 10 µM): 0.97%
- viability, T/C (second compound 1 µM, first compound 0.0316 µM): 0.12%
- viability, T/C (second compound 1 µM, first compound 0.1 µM): 0.29%
- viability, T/C (second compound 1 µM, first compound 0.316 µM): 0.26%
- viability, T/C (second compound 1 µM, first compound 1 µM): 0.59%
- viability, T/C (second compound 1 µM, first compound 3.16 µM): 0.53%
- viability, T/C (second compound 1 µM, first compound 10 µM): 0.72%
- viability, T/C (second compound 3.16 µM, first compound 0.0316 µM): 0.14%
- viability, T/C (second compound 3.16 µM, first compound 0.1 µM): 0.16%
- viability, T/C (second compound 3.16 µM, first compound 0.316 µM): 0.24%
- viability, T/C (second compound 3.16 µM, first compound 1 µM): 0.38%
- viability, T/C (second compound 3.16 µM, first compound 3.16 µM): 0.38%
- viability, T/C (second compound 3.16 µM, first compound 10 µM): 0.06%
- viability, T/C (second compound 10 µM, first compound 0.0316 µM): 0.04%
- viability, T/C (second compound 10 µM, first compound 0.1 µM): 0.07%
- viability, T/C (second compound 10 µM, first compound 0.316 µM): 0.11%
- viability, T/C (second compound 10 µM, first compound 1 µM): 0.06%
- viability, T/C (second compound 10 µM, first compound 3.16 µM): 0.1%
- viability, T/C (second compound 10 µM, first compound 10 µM): 0.08%
